Like-named read-outs stand apart in the source and are kept apart here.
What was measured:
[1] = Plasma pharmacokinetics after IV and PO administration; assay type: in vivo, male Sprague–Dawley rats; details: male, Sprague-Dawley, rat, plasma; for bioavailability: PO 10 mg/kg vs IV 1 mg/kg
Method: LZQ‐02‐023‐1 was administered to male Sprague–Dawley (SD) rats (n = 3 per group) via intravenous injection at a dose of 1 mg/kg or oral gavage at a dose of 10 mg/kg. Blood samples were collected at predetermined time points, and plasma concentrations of LZQ‐02‐023‐1 were determined using a validated LC‐MS/MS method. Briefly, working solutions of the analyte were prepared by diluting stock solutions with 50% acetonitrile in water to achieve serial concentrations (10, 20, 50, 100, 200, 500, 1000, 5000, and 10 000 ng/mL). Calibration standards were prepared by spiking 5 µL of working solution into 50 µL of blank SD rat plasma, resulting in final concentrations of 1, 2, 5, 10, 20, 50, 100, 500, and 1000 ng/mL in a total volume of 55 µL. Quality control (QC) samples were independently prepared at four concentrations (2, 5, 50, and 800 ng/mL) using blank SD rat plasma, following the same procedure as for the calibration standards. On the day of analysis, 55 µL of each calibration standard, QC sample, or unknown sample (prepared by mixing 50 µL of SD rat plasma with 5 µL of blank solution) was added to 200 µL of acetonitrile:methanol (1:1, v/v) containing an internal standard (IS) mixture for protein precipitation. The samples were vortexed for 30 s, centrifuged at 4000 rpm for 15 min at 4 °C, and the resulting supernatant was diluted threefold with water. A 10 µL aliquot of the diluted supernatant was injected into an AB Sciex Triple Quad 5500 LC‐MS/MS system for quantitative analysis. Pharmacokinetic parameters, including the maximum plasma concentration (Cmax), time to reach Cmax (Tmax), elimination half‐life (t1⁄2), area under the plasma concentration‐time curve (AUC0–t and AUC0–∞), clearance (CL), and volume of distribution (Vd), were calculated using noncompartmental analysis (NCA) in Phoenix WinNonlin 8.3 (Certara; Table S3, Supporting Information).

[2] = test system: MITF ubiquitination in MKN45 and AGS cells; assay: Endogenous MITF ubiquitination and degradation in GC cells (IP and immunoblotting); assay type: cell-based; details: 20 µM, MG132 5 µM pretreatment
Method: Protein extraction from tissues or cells was performed by lysis buffer (20 mM Tris‐HCl (pH 7.5), 150 mM NaCl, 1 mM EDTA, 1 mM EGTA, 2.5 mM sodium pyrophosphate, 1 mM β‐glycerolphosphate, 1% Triton X‐100) supplemented with 1% phenylmethylsulfonyl fluoride (PMSF; Solarbio, P0100) and protease inhibitor cocktail (Apexbio, K1007) and lysed at 4 °C for 60 min, followed by centrifugation at 12000 g for 15 min at 4 °C. For Immunoblotting, the protein concentration was determined using the Pierce BCA Protein Assay Kit (Thermo Fisher Scientific, A55864). The protein samples were denatured by boiling in SDS‐PAGE loading buffer. For immunoprecipitation, antibodies were incubated with Dynabeads Protein G (Thermo, 10004D) at 4 °C for 4 h. The supernatant was then incubated with magnetic beads conjugated with antibodies or anti‐FLAG‐M2 magnetic beads (Sigma–Aldrich, M8823) at 4 °C overnight. Following incubation, the magnetic beads were washed three times with lysis buffer and then boiled in SDS‐PAGE loading buffer. […]
Plasmids were transfected into HEK293T cells for 24 h or into gastric cells for 36 h. […] After lysing the cells with lysis buffer, the samples were subjected to immunoprecipitation and analyzed by immunoblotting.

[3] = iv, 1 mg/kg, IV 1 mg/kg, individual rats R01-R03, read-out: Plasma concentration
[4] = iv, 1 mg/kg, IV 1 mg/kg, read-out: Plasma concentration, mean
[5] = po, 10 mg/kg, PO 10 mg/kg, individual rats R04-R06, read-out: Plasma concentration
[6] = po, 10 mg/kg, PO 10 mg/kg, read-out: Plasma concentration, mean

Cc1ccc(Nc2ncc3c(n2)N(C)C(=O)N(c2cccc(N)c2)C3)cn1 [LZQ-02-023-01, Three‐(3‐aminophenyl)‐1‐methyl‐7‐((6‐methylpyridin‐3‐yl)amino)‐3,4‐dihydropyrimido [4,5‐d] pyrimidin‐2 (1H)‐one]
concentration at 0.5 h [1, 3]: 10.9 ng/mL | concentration at 0.5 h [1, 4]: 13.1 ng/mL | concentration at 1 h [1, 3]: 4.26 ng/mL | concentration at 1 h [1, 4]: 4.21 ng/mL | concentration at 2 h [1, 3]: 2.35 ng/mL | concentration at 2 h [1, 4]: 2.11 ng/mL | AUC(0-inf) ([1]; iv, 1 mg/kg, IV 1 mg/kg, individual rats R01-R03, read-out: AUCInf): 168 ng·h/mL | AUC(0-t) ([1]; iv, 1 mg/kg, IV 1 mg/kg, individual rats R01-R03, read-out: AUClast): 165 ng·h/mL | C0 ([1]; iv, 1 mg/kg, IV 1 mg/kg, individual rats R01-R03, read-out: C0): 2110 ng/mL | clearance ([1]; iv, 1 mg/kg, IV 1 mg/kg, individual rats R01-R03, read-out: Cl_obs): 99.3 mL/min/kg | MRT inf ([1]; iv, 1 mg/kg, IV 1 mg/kg, individual rats R01-R03, read-out: MRTInf_obs): 7.8 min | half-life ([1]; iv, 1 mg/kg, IV 1 mg/kg, individual rats R01-R03, read-out: T1/2 (converted)): 43.3 min | AUC(0-inf) ([1]; iv, 1 mg/kg, IV 1 mg/kg, read-out: AUCInf, mean): 178 ng·h/mL | AUC(0-t) ([1]; iv, 1 mg/kg, IV 1 mg/kg, read-out: AUClast, mean): 176 ng·h/mL | clearance ([1]; iv, 1 mg/kg, IV 1 mg/kg, read-out: Cl_obs, mean): 94.2 mL/min/kg | MRT inf ([1]; iv, 1 mg/kg, IV 1 mg/kg, read-out: MRTInf_obs, mean): 6.96 min | half-life ([1]; iv, 1 mg/kg, IV 1 mg/kg, read-out: T1/2, mean (converted)): 37.2 min | half-life ([1]; iv, 1 mg/kg, IV administration, male SD rats, read-out: Plasma half-life (converted)): ~37.2 min | bioavailability ([1]; po, 10 mg/kg, individual rats R04-R06, read-out: F (bioavailability)): 1.82% | bioavailability ([1]; po, 10 mg/kg, read-out: F (bioavailability), mean): 1.82% | concentration at 0.25 h ([1]; po, 10 mg/kg, PO 10 mg/kg, 0.25 h, read-out: Plasma concentration, mean): 23.9 ng/mL | concentration at 0.5 h [1, 5]: 14.1 ng/mL | concentration at 0.5 h [1, 6]: 18.1 ng/mL | concentration at 1 h [1, 6]: 5.83 ng/mL | concentration at 2 h [1, 6]: 6.5 ng/mL | concentration at 4 h [1, 5]: 1.99 ng/mL | concentration at 4 h [1, 6]: 1.79 ng/mL | AUC(0-inf) ([1]; po, 10 mg/kg, PO 10 mg/kg, individual rats R04-R06, read-out: AUCInf): 32.4 ng·h/mL | Cmax ([1]; po, 10 mg/kg, PO 10 mg/kg, individual rats R04-R06, read-out: Cmax): 39 ng/mL | MRT inf ([1]; po, 10 mg/kg, PO 10 mg/kg, individual rats R04-R06, read-out: MRTInf_obs): 111 min | Tmax ([1]; po, 10 mg/kg, PO 10 mg/kg, individual rats R04-R06, read-out: Tmax): 15 min | AUC(0-inf) ([1]; po, 10 mg/kg, PO 10 mg/kg, read-out: AUCInf, mean): 32.3 ng·h/mL | AUC(0-t) ([1]; po, 10 mg/kg, PO 10 mg/kg, read-out: AUClast, mean): 28.6 ng·h/mL | Cmax ([1]; po, 10 mg/kg, PO 10 mg/kg, read-out: Cmax, mean): 27.7 ng/mL | MRT inf ([1]; po, 10 mg/kg, PO 10 mg/kg, read-out: MRTInf_obs, mean): 114 min | half-life ([1]; po, 10 mg/kg, PO 10 mg/kg, read-out: T1/2, mean (converted)): 90.6 min | Tmax ([1]; po, 10 mg/kg, PO 10 mg/kg, read-out: Tmax, mean): 20 min | half-life ([1]; po, 10 mg/kg, PO administration, male SD rats, read-out: Plasma half-life (converted)): ~90.6 min | PIAS3-mediated ubiquitination and degradation of MITF, GC cells [2]: significantly promoted

Reference: PMC12752606, “METTL10‐Mediated PIAS3 Methylation Links Purine Metabolism to Gastric Cancer Progression” (Advanced Science, 2025)
